According to publication PMC5509440 (Bioorganic & medicinal chemistry, 2017):
Entries after “also recorded” stand apart in the source; their conditions may differ.

What was measured:
[1] = system: T. b. brucei Lister 427 cells; experiment: T. brucei cell viability analysis; type: cell-based; settings: Trypanosoma brucei, 48 h, read-out: IC50 against T. brucei cells, bloodstream form T. b. brucei Lister 427, 48 hrs, MTS
[2] = target: tubulin polymerization in T. brucei cells (Trypanosoma brucei rhodesiense, UniProt P04106+P04107); type: cell-based; settings: different doses, 7 hrs, western blot with TAT-1 antibody
Sequence of tubulin polymerization in T. brucei cells (P04106 whole entry): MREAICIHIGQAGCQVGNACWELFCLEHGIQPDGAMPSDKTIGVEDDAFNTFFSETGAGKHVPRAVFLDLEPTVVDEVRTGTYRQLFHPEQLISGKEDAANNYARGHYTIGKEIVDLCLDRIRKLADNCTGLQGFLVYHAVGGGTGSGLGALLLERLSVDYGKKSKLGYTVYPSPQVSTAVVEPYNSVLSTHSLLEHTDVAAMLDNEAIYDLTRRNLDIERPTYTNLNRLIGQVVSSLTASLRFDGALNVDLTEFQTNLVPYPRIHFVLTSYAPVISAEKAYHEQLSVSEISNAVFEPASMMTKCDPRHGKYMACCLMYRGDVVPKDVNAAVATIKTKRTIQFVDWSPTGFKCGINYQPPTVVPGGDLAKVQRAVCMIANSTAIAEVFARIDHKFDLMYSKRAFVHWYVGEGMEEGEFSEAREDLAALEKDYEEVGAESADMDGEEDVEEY
Sequence of tubulin polymerization in T. brucei cells (P04107 whole entry): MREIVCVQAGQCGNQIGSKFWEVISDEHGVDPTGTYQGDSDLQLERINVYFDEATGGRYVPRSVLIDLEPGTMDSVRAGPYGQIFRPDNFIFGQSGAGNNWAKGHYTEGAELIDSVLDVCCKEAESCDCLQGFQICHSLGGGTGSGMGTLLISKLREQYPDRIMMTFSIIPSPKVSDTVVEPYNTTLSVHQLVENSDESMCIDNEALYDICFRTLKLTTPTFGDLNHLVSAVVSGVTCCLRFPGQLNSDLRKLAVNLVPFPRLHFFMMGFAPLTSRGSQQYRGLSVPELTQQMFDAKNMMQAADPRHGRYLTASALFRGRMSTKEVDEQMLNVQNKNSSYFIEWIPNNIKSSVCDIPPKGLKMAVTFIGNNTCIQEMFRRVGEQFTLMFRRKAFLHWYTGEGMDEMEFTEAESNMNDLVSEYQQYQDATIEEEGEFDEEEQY

SMILES | IC50 [1] | amount of polymerized tubulin in T. brucei cells [2]
CN(c1ccc(NC(=O)c2cc(C(F)(F)F)cc(C(F)(F)F)c2)cc1OCc1ccc(C(F)(F)F)cc1)S(=O)(=O)Cc1ccccc1 [Compound 11, N-(4-(N-methyl-1-phenylmethylsulfonamido)-3-((4-(trifluoromethyl)benzyl)oxy)phenyl)-3,5-bis(trifluor omethyl)benzamide] | < 5 µM | 
CN(c1ccc(NC(=O)c2ccc(C#N)cc2)cc1OCc1ccc(C(F)(F)F)cc1)S(=O)(=O)Cc1ccccc1 [Compound 15, 4-cyano-N-(4-(N-methyl-1-phenylmethylsulfonamido)-3-((4-(trifluoromethyl)benzyl)oxy)phenyl)benzamide] |  | decreased the amount of polymerized tubulin in a dose-dependent manner; also recorded: level of polymerized tubulin is significantly decreased
